Results: patent US9011912B2, “Extended-release oral dosage forms for poorly soluble amine drugs” (Abon Pharmaceuticals, LLC, priority 2010, dated 2015)
Where two headings read alike, the source gives them in different places.

Legend:
[1] = amine drug, cited from earlier work
[2] = Solubility test of paliperidone with ionizable compound (citric acid) and amphiphilic compound (SoluPlus); format: physicochemical; details: for solubility: room temperature
Description: A solubility test was performed to quantify the synergistic effects provided by the combination of an ionizable polymer and an amphiphilic compound. In this Example the ionizable compound was citric acid and the amphiphilic compound was SoluPlus®.

solubility higher in solution containing ionizable compound and amphiphilic polymer compared to ionizable compound without amphiphilic polymer ([2]; 10% Soluplus + 10% citric acid vs 10% citric acid alone) [%] | solubility ([2]; aqueous buffer, in 10% Citric Acid Aqueous Solution) [mg/mL] | solubility ([2]; aqueous with cosolvent or surfactant or cyclodextrin, in 10% Soluplus Aqueous Solution) [mg/mL] | solubility ([2]; aqueous with cosolvent or surfactant or cyclodextrin, in 10% Soluplus and 10% Citric Acid Aqueous Solution) [mg/mL] | SMILES | pKa ([1]; first pKa value) | pKa ([1]; second pKa value)
 |  |  |  | Cc1cc2c(s1)Nc1ccccc1N=C2N1CCN(C)CC1 [Olanzapine] | 5 | 7.4
 |  |  |  | CCOc1ccccc1OCCN[C@H](C)Cc1ccc(OC)c(S(N)(=O)=O)c1 [Tamsulosin] |  | 10.23
34.3 | 241 | 0.6 | 324 | Cc1nc2n(c(=O)c1CCN1CCC(c3noc4cc(F)ccc34)CC1)CCCC2O (stereo not drawn) [Paliperidone] | 8.2 | 8.6
